In US4918174A, “Tiacumicin compounds” (Abbott Laboratories, priority 1986, dated 1990):
Converted amounts (≈) assume the structure as drawn. Where two headings read alike, the source gives them in different places.

Tests used:
Micrococcus luteus 4698 = experiment: Minimal Inhibitory Concentrations against common test organisms; type: cell-based
[1] = test system: Staphylococcus aureus ATCC 6538; experiment: as above; type: cell-based
[2] = test system: Staphylococcus epidermidis 3519; experiment: as above; type: cell-based
[3] = test system: Streptococcus pyogenes 930; experiment: as above; type: cell-based
Micrococcus luteus 9341 = experiment: as above; type: cell-based
solubility = type: physicochemical
[4] = test system: Streptococcus faecium ATCC 8043; experiment: Minimal Inhibitory Concentrations against common test organisms; type: cell-based; conditions: Enterococcus faecium, ATCC8043
[5] = test system: Candida albicans ATCC 10231; experiment: as above; type: cell-based; conditions: ATCC10231
[6] = test system: Pseudomonas aeruginosa A-5007; experiment: as above; type: cell-based; conditions: A5007
Bacteroides fragilis 784 = experiment: as above; type: cell-based
Gram-positive bacteria = experiment: antibiotic activity against Gram-positive bacteria in vitro; type: cell-based; conditions: including strains resistant to currently used therapeutic antibiotics
Esherichia coli Juhl = experiment: Minimal Inhibitory Concentrations against common test organisms; type: cell-based
[7] = test system: Propionibacterium acnes 132; experiment: as above; type: cell-based; conditions: Cutibacterium acnes
[8] = ATCC6538, Staphylococcus aureus ATCC 6538, read-out: Minimal Inhibitory Concentrations

Row | SMILES | MIC [1, 8] [mg/L] | MIC [2] [mg/L] | MIC [3] [mg/L] | MIC (Micrococcus luteus 9341) [mg/L] | solubility in acetonitrile (solubility) | solubility in benzene (solubility) | solubility in chloroform (solubility) | solubility in methanol (solubility) | solubility in water (solubility) | MIC [4] [mg/L] | MIC [5] [mg/L] | MIC [6] [mg/L] | antibiotic activity against a number of Gram-positive bacteria (Gram-positive bacteria) | MIC (Esherichia coli Juhl) [mg/L] | solubility in ether (solubility) | solubility in hexane (solubility) | also measured
1 | CCC1CC=C(C)C=C(C)C(OC2OC(C)(C)C(OC(C)=O)C(O)C2O)C(CC)C=C(C)C(O)CC=CC=C(C)C(=O)O1 (centres unmarked) [Tiacumicin A] | 100 (≈ 165 µM) | 100 (≈ 165 µM) | 100 (≈ 165 µM) | 0.1 (≈ 0.165 µM) | sparingly soluble | readily soluble | readily soluble | readily soluble | insoluble | – | – | – | – | – | – | – | MIC (Micrococcus luteus 4698): 0.39 mg/L (≈ 0.645 µM); solubility in acetone (solubility; acetone): sparingly soluble
2 | CCc1c(Cl)c(O)c(Cl)c(O)c1C(=O)OC1C(C)OC(OCC2=CC=CCC(O)C(C)=CC(CC)C(OC3OC(C)(C)C(OC(=O)C(C)C)C(O)C3O)C(C)=CC(C)=CCC(C(C)O)OC2=O)C(OC)C1O (centres unmarked) [Tiacumicin B] | – | 12.5 (≈ 11.8 µM) | 12.5 (≈ 11.8 µM) | 0.1 (≈ 0.0945 µM) | readily soluble | sparingly soluble | sparingly soluble | readily soluble | insoluble | 12.5 (≈ 11.8 µM) | > 100 | > 100 | possessed antibiotic activity | > 100 | sparingly soluble | insoluble | MIC ([1]; Staphylococcus aureus, ATCC6538, read-out: Minimal Inhibitory Concentrations): 12.5 mg/L (≈ 11.8 µM); MIC (Bacteroides fragilis 784): > 100 mg/L; MIC [7]: 6.25 mg/L (≈ 5.91 µM)
3 | CCc1c(Cl)c(O)c(Cl)c(O)c1C(=O)OC1C(C)OC(OCC2=CC=CCC(O)C(C)=CC(CC)C(OC3OC(C)(C)C(O)C(O)C3OC(=O)C(C)C)C(C)=CC(C)=CCC(C(C)O)OC2=O)C(OC)C1O (centres unmarked) [Tiacumicin C] | 50 (≈ 47.3 µM) | 25 (≈ 23.6 µM) | 25 (≈ 23.6 µM) | ≤ 0.39 | readily soluble | sparingly soluble | sparingly soluble | readily soluble | insoluble | 100 (≈ 94.5 µM) | > 100 | > 100 | possessed antibiotic activity | > 100 | sparingly soluble | insoluble | –
4 | CCc1c(Cl)c(O)c(Cl)c(O)c1C(=O)OC1C(O)C(C)OC(OCC2=CC=CCC(O)C(C)=CC(CC)C(OC3OC(C)(C)C(O)C(O)C3OC(=O)C(C)C)C(C)=CC(C)=CCC(C(C)O)OC2=O)C1OC (centres unmarked) [Tiacumicin D] | > 25 | > 25 | > 25 | 0.2 (≈ 0.189 µM) | readily soluble | sparingly soluble | sparingly soluble | readily soluble | insoluble | > 25 | – | > 25 | – | > 25 | sparingly soluble | insoluble | –
5 | CCC(=O)OC1C(OC2C(C)=CC(C)=CCC(C(C)O)OC(=O)C(COC3OC(C)C(OC(=O)c4c(O)c(Cl)c(O)c(Cl)c4CC)C(O)C3OC)=CC=CCC(O)C(C)=CC2CC)OC(C)(C)C(O)C1O (centres unmarked) [Tiacumicin E] | 2.5 (≈ 2.39 µM) | 12.5 (≈ 12 µM) | 50 (≈ 47.9 µM) | – | readily soluble | sparingly soluble | sparingly soluble | readily soluble | insoluble | 12.5 (≈ 12 µM) | – | > 100 | – | > 100 | sparingly soluble | insoluble | –
6 | CCc1c(Cl)c(O)c(Cl)c(O)c1C(=O)OC1C(C)OC(OCC2=CC=CCC(O)C(C)=CC(CC)C(OC3OC(C)(C)C(O)C(OC(=O)C(C)C)C3O)C(C)=CC(C)=CCC(C(C)O)OC2=O)C(OC)C1O (centres unmarked) [Tiacumicin F] | 12.5 (≈ 11.8 µM) | 12.5 (≈ 11.8 µM) | 12.5 (≈ 11.8 µM) | 6.2 (≈ 5.86 µM) | readily soluble | sparingly soluble | sparingly soluble | readily soluble | insoluble | 6.2 (≈ 5.86 µM) | – | > 100 | – | > 100 | sparingly soluble | insoluble | –
